Laboratory results taken from patent US20070004010A1, “Engineered Enzymes and Their Use for Synthesis of Thioglycosides” (THE UNIVERSITY OF BRITISH COLUMBIA, priority 2002, published 2007).
Residue numbers refer to the chain shown, from its start. Names and notes keep the numbering of the source.

How the values were obtained:
Cex E127A = target: T1, Cex E127A (Cellulomonas fimi, UniProt P07986, E168A); assay: Functional donors and acceptors for Cex E127A; type: biochemical
T1 sequence (P07986 42-484 E168A): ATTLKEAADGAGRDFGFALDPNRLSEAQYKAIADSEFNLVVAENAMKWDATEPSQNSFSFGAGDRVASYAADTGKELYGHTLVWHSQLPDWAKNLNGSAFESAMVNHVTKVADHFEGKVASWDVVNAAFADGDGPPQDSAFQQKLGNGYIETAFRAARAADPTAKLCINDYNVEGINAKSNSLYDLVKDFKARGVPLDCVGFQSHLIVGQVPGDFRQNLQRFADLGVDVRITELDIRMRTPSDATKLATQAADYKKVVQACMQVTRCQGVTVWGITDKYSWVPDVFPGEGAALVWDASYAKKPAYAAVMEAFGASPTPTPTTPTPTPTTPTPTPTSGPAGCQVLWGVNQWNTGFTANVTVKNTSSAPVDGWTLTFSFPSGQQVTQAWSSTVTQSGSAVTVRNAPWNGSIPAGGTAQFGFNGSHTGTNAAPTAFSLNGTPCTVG

Abg E171A [1] = target: T2, Abg E171A (Agrobacterium sp., UniProt P12614, E171A); type: biochemical; settings: acceptor with Abg E171A in the presence of DNP-Glc as donor
Man2A E429A [2] = assay: Control reaction with parent sugars as acceptors, DNP-Man as donor; type: biochemical, Cellulomonas fimi; settings: acceptor for Man2A E429A in the presence of DNP-Man
Abg E171A [3] = target: T2, Abg E171A; assay: Kinetic analysis of thioglycoligase reaction (DNP release) with Abg E171A; type: biochemical; settings: acceptor; donor 2,4-DNP β-D-glucopyranoside (125 mM); 30° C., 50 mM NaPi, 145 mM NaCl, pH 7.1; calculated from the highest observed rate of DNP release
Description: Kinetic analysis was performed with 2,4-DNP β-D-glucopyranoside (125 mM) as donor and with pNP 4-deoxy-4-thio-β-D-glucopyranoside as acceptor at 30° C. in 50 mM NaPi, 145 mM NaCl, pH 7.1 (FIG. 7). It has been shown previously, that the KM− value of the donor is extremely low (<1 μM), and that no donor substrate inhibition is seen. Enzymatic background hydrolysis of the donor together with acceptor substrate inhibition make it difficult to exactly determine K′M and k′cat, but it can be calculated from the highest observed rate of DNP release, that k′cat is higher than 50 min^−1.

Man2A E429A [4] = assay: Competition study for evaluation of relative rates of transfer to S- and O-acceptors (HPLC); type: biochemical, Cellulomonas fimi; settings: 6 vs pNP-Xyl, 5.5 mM each; donor DNP-Man; pH 6.8, RT; integration of HPLC peaks
Description: Arrows indicate the elution of the O-linked disaccharides, 10 is the S-linked disaccharide.
In order to assess the relative rates of transfer to the oxygen and sulfur nucleophiles in the case of Man 2A E429A we established a competition reaction in which equimolar amounts of pNP-Xyl and its 4-thio analogue 6 were incubated together with DNP-Man as donor and Man2A E429A (FIG. 3). When the concentration of donor was limiting (one third of the concentration of acceptors) we saw exclusive formation of the S-linked disaccharide 10 (a). However, upon addition of further donor to a final concentration twice that of the acceptors the O-linked disaccharides (indicated by arrows) were formed (b).
pNP-Xyl (5.5 mM), 6 (5.5 mM), DNP-Man (3.75 mM) and Man2A E429A (˜1 mg ml.) were incubated in phosphate buffer (50 mM, pH 6.8) for 3 h at RT. After removal of an aliquot DNP-Man was added to a final concentration of 22 mM. After 5 h at RT another aliquot was taken. The aliquots were diluted 1:3 with acetonitrile and centrifuged before applying to the HPLC. HPLC analysis was performed using a Waters 600E multisolvent delivery system with acetonitrile (A)/water (B) as mobile phase (linear gradient: 80% A→60% A in 15 min, flow: 1 ml min^−1), a Waters 2486 Dual λ Absorbance Detector (detection at 280 nm), a TOSO HAAS Amide 80 column (4.6×250 mm) and Millenium 3.20 software.

[5] = Thioglycoligase function of Cex acid/base mutant; type: biochemical, Cellulomonas fimi; settings: mutation of the catalytic acid/base residue E127
[6] = Saturation mutagenesis at the acid/base position (E171) of Abg: thioligase functionality; type: biochemical, Agrobacterium sp.

T2 sequence (P12614 whole entry E171A, looked up): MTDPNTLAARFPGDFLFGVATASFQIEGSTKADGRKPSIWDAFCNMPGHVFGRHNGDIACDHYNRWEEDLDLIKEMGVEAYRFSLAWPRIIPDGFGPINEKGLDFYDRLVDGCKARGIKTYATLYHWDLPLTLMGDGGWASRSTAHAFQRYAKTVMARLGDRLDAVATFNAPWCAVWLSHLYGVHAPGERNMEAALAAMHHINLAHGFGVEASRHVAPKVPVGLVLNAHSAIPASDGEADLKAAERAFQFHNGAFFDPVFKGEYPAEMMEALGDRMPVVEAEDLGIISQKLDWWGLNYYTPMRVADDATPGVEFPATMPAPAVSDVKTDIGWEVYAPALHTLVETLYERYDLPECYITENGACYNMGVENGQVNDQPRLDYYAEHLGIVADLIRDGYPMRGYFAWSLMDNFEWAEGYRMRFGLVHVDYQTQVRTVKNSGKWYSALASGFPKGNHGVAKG

## O=[N+]([O-])c1ccc(O[C@@H]2O[C@H](CO)[C@@H](O[C@@H]3O[C@H](CO)[C@@H](S)[C@H](O)[C@H]3O)[C@H](O)[C@H]2O)cc1 [pNP 4′-deoxy4′-thio-β-cellobioside, pNP 4′-deoxy-4′-thio-β-cellobioside]
Cex E127A
  acceptor function: Functional acceptors
  donor function: Functional donors

## O=[N+]([O-])c1ccc(O[C@@H]2O[C@H](CO)[C@@H](O)[C@H](O)[C@H]2O)cc1 [pNP-Glc, para-nitrophenyl β-D-glucopyranoside]
Abg E171A [1]
  formation of disaccharides: no formation of disaccharides
Man2A E429A [2]
  formation of disaccharide products: only very slowly

## O=[N+]([O-])c1ccc(O[C@@H]2O[C@H](CO)[C@@H](S)[C@H](O)[C@H]2O)cc1 [compound 3, para-nitrophenyl 4-deoxy-4-thio-β-D-glucopyranoside]
Abg E171A [3]
  k′cat: higher than 50 min^−1
Cex E127A
  acceptor function: Functional acceptors

## OC[C@H]1O[C@@H](O[C@H]2[C@H](O)[C@@H](O)C(O)O[C@@H]2CO)[C@H](O)[C@@H](O)[C@@H]1S (stereo partly drawn) [4′-deoxy-4′-thio-cellobiose]
Cex E127A
  acceptor function: Functional acceptors

## O=[N+]([O-])c1ccc(O[C@@H]2OC[C@@H](O)[C@H](O)[C@H]2O)cc1 [pNP-Xyl, para-nitrophenyl β-D-xylopyranoside]
Abg E171A [1]
  formation of disaccharides: no formation of disaccharides
Man2A E429A [2]
  formation of disaccharide products: only very slowly

## O=[N+]([O-])c1ccc(O[C@@H]2O[C@H](CO)[C@@H](O[C@@H]3O[C@H](CO)[C@@H](O)[C@H](O)[C@H]3O)[C@H](O)[C@H]2O)c([N+](=O)[O-])c1 [DNP β-cellobioside]
Cex E127A
  donor function: Functional donors

## O=[N+]([O-])c1ccc(O[C@@H]2OC[C@@H](S)[C@H](O)[C@H]2O)cc1 [compound 6, p-Nitrophenyl 4-deoxy-4-thio-β-D-xylopyranoside]
Man2A E429A [4]
  transfer to the thiosugar acceptor faster than transfer to its oxygen analogue: at least 100 fold

B1: Cex E127A: endo acting retaining β-glycosidase from Cellulomonas fimi (Cex) mutated at the catalytic acid/base residue E127 (protein, UniProt P07986 42-484, looked up, variant E127A)
Exoglucanase/xylanase: T1 sequence (P07986 42-484 E168A)
[5]
  thioglycoligase function: functional thioglycoligase

B2: Abg E171G: acid/base position (E171) mutant of the β-glucosidase from Agrobacterium sp. (Abg) (protein, UniProt P12614 1-459, looked up, variant E171G)
Beta-glucosidase: MTDPNTLAARFPGDFLFGVATASFQIEGSTKADGRKPSIWDAFCNMPGHVFGRHNGDIACDHYNRWEEDLDLIKEMGVEAYRFSLAWPRIIPDGFGPINEKGLDFYDRLVDGCKARGIKTYATLYHWDLPLTLMGDGGWASRSTAHAFQRYAKTVMARLGDRLDAVATFNGPWCAVWLSHLYGVHAPGERNMEAALAAMHHINLAHGFGVEASRHVAPKVPVGLVLNAHSAIPASDGEADLKAAERAFQFHNGAFFDPVFKGEYPAEMMEALGDRMPVVEAEDLGIISQKLDWWGLNYYTPMRVADDATPGVEFPATMPAPAVSDVKTDIGWEVYAPALHTLVETLYERYDLPECYITENGACYNMGVENGQVNDQPRLDYYAEHLGIVADLIRDGYPMRGYFAWSLMDNFEWAEGYRMRFGLVHVDYQTQVRTVKNSGKWYSALASGFPKGNHGVAKG
[6]
  functionality as thioligase: functionality as thioligases

B3: E171N: acid/base position (E171) mutant of Abg (protein, UniProt P12614 1-459, looked up, variant E171N)
Beta-glucosidase: B2 Beta-glucosidase with G171N
[6]
  functionality as thioligase: functionality as thioligases

B4: Abg E171Q: acid/base position (E171) mutant of the β-glucosidase from Agrobacterium sp. (Abg) (protein, UniProt P12614 1-459, looked up, variant E171Q)
Beta-glucosidase: B2 Beta-glucosidase with G171Q
[6]
  functionality as thioligase: functionality as thioligases

B5: E171I: acid/base position (E171) mutant of Abg (protein, UniProt P12614 1-459, looked up, variant E171I)
Beta-glucosidase: B2 Beta-glucosidase with G171I
[6]
  functionality as thioligase: functionality as thioligases

B6: E171F: acid/base position (E171) mutant of Abg (protein, UniProt P12614 1-459, looked up, variant E171F)
Beta-glucosidase: B2 Beta-glucosidase with G171F
[6]
  functionality as thioligase: functionality as thioligases

B7: E171S: acid/base position (E171) mutant of Abg (protein, UniProt P12614 1-459, looked up, variant E171S)
Beta-glucosidase: B2 Beta-glucosidase with G171S
[6]
  functionality as thioligase: functionality as thioligases

B8: E171T: acid/base position (E171) mutant of Abg (protein, UniProt P12614 1-459, looked up, variant E171T)
Beta-glucosidase: B2 Beta-glucosidase with G171T
[6]
  functionality as thioligase: functionality as thioligases

B9: E171M: acid/base position (E171) mutant of Abg (protein, UniProt P12614 1-459, looked up, variant E171M)
Beta-glucosidase: B2 Beta-glucosidase with G171M
[6]
  functionality as thioligase: functionality as thioligases

B10: E171L: acid/base position (E171) mutant of Abg (protein, UniProt P12614 1-459, looked up, variant E171L)
Beta-glucosidase: B2 Beta-glucosidase with G171L
[6]
  functionality as thioligase: functionality as thioligases
